What was measured:
[1] = tested on: salivary cortisol; assay: Timed mathematical and word stress test in panelists exposed to fragrance compound; salivary cortisol before vs after stress; type: in vivo, human; conditions: panelists' saliva, before vs immediately after stress test; single fragrance compound in DPG solvent; DPG control 10.8%
Experimental: (§1) Stress was induced in each panelist using a timed mathematical and word test, which was administered to panelists in a small group competition setting to induce stress in each of the panelists. At set time intervals during the test, each panelist was exposed to either a single fragrance compound or to a DPG control.
(§2) Saliva was collected for each panelist before and immediately after the stress test. Saliva samples were assayed for salivary alpha-amylase activity and salivary cortisol levels using a commercially available assay kit (e.g., Salimetrics).
(§3) Table 1-B summarizes the percent change (i.e., before stress versus after stress) in the salivary cortisol levels of panelists exposed to fragrance compounds of the present disclosure during the stress test. In addition, the table illustrates the statistical significance of the change in salivary cortisol levels (i.e., p-value or probability value, P) of each of the fragrance compounds as compared to DPG, representing the change in the control (i.e., just DPG without a fragrance compound before stress and after stress).

[2] = tested on: salivary alpha-amylase; assay: Timed mathematical and word stress test in panelists exposed to fragrance compound; salivary alpha-amylase before vs after stress; type: in vivo, human; conditions: panelists' saliva, before vs immediately after stress test; single fragrance compound in DPG solvent; DPG control 51.9%
Experimental: as §1, §2
as §3, with “Table 1-A” for “Table 1-B”, “salivary alpha-amylase” for “salivary cortisol”, “in alpha-amylase” for “in salivary cortisol”

Molecule | % Change in Cortisol (i.e., before versus after stress) [1] [%] | % Change in Alpha-amylase (i.e., before versus after stress) [2] [%]
CC1(O)CCC2C(=CCCC2(C)C)C1 (stereo not shown) [2,5,5-trimethyl-1,3,4,4a,6,7-hexahydronaphthalen-2-ol] | 30.0 | 5.1
CC1(C)CCC[C@]2(C)[C@H]3CCO[C@]3(C)CC[C@@H]12 [Ambroxide] | 1.1 | −12.2
CC(C)(C)C1CCC(=O)C(C(C)(C)C)C1 (stereo not shown) [2,4-di(tert-butyl)-cyclohexan-1-one] | 8.3 | 10.9
C=CC(=C)CCCC(C)(C)OC(C)=O [Myrcenyl Acetate] | −6.9 | 15.8
CC(C)=CCCC(C)CCO (stereo not shown) [Citronellol] | 3.4 | 1.2
CC12CCC(CC1=O)C2(C)C (stereo not shown) [Camphor] | −2.2 | −11.6
CC(C)=CCCC(C)=CC=O [Citral] | −2.8 | 7.5
CC(C=O)Cc1ccc(C(C)C)cc1 (stereo not shown) [3-(4-isopropylphenyl)-2-methylpropanal] | 17.73 | 4.8
CC(=O)OC1CCCCC1C(C)(C)C (stereo not shown) [2-tert-butylcyclohexyl acetate] | −14.2 | −4.3
COC(=O)OC1CCC=CCCC1 (stereo not shown) [1-cyclooct-4-enyl methyl carbonate] | 3.5 | 15.2
CC(C)=CCCC(C)CC=O (stereo not shown) [Citronellal] | 16.8 | 4.9
(1,7,7-trimethylbicyclo[2.2.1]hept-2-yl)-cyclohexanol | 1.0 | 3.8
C=CC(C)CCC=C(C)C (stereo not shown) [Dihyrdomyrcene] | −8.1 | 23.6
CC12CCC(CC1)C(C)(C)O2 [Eucalyptol] | −12.87 | −11.1
CC(=O)C1(C)CC2=C(CCCC2(C)C)CC1C (stereo not shown) [1-(1,2,3,4,5,6,7,8-octahydro-2,3,8,8,-tetramethyl-2-naphthyl)ethan-1-one] | −11.9 | −2.5
CC(=O)O[C@@H]1C[C@@H]2CC[C@@]1(C)C2(C)C [Bornyl Acetate, L] | −13.0 | 27.1
C=CC(C)CCCC(C)(C)OC(C)=O (stereo not shown) [Dihydromyrcenyl Acetate] | −13.3 | −3.9

Source: patent publication US11384312B2, “Fragrance compositions and methods of use thereof” (TAKASAGO INTERNATIONAL CORPORATION, priority 2016, dated 2022)
